Data from ChEMBL document CHEMBL4811240, “Discovery of N-substituted sulfamoylbenzamide derivatives as novel inhibitors of STAT3 signaling pathway based on Niclosamide” (Eur J Med Chem, 2021).
pIC50: −log10 of the molar value.

Columns and labels:
L3.6pl = assay: Antiproliferative activity against human L3.6 cells assessed as inhibition of cell viability at 10 uM after 48 hrs by MTT assay relative to control; type: functional
SW480 = assay: Antiproliferative activity against human SW480 cells assessed as inhibition of cell viability at 10 uM after 48 hrs by MTT assay relative to control; type: functional
MDA-MB-231 [1] = assay: Antiproliferative activity against human MDA-MB-231 cells assessed as inhibition of cell viability at 10 uM after 48 hrs by MTT assay relative to control; type: functional
HCT-116 [2] = assay: Antiproliferative activity against human HCT116 cells assessed as inhibition of cell viability at 10 uM after 48 hrs by MTT assay relative to control; type: functional
HCT-116 [3] = assay: Antiproliferative activity against human HCT-116 cells assessed as inhibition of cell viability after 48 hrs by MTT assay; type: functional, cell-based; conditions: HCT-116, 48 h
MDA-MB-231 [4] = assay: Antiproliferative activity against human MDA-MB-231 cells assessed as inhibition of cell viability after 48 hrs by MTT assay; type: functional, cell-based; conditions: MDA-MB-231, 48 h
[5] = Lipophilicity, log P of the compound; type: physicochemical; conditions: octanol/water

SMILES	inhibition at 10 µM (L3.6pl)	inhibition at 10 µM (SW480)	inhibition at 10 µM (MDA-MB-231 [1])	inhibition at 10 µM (HCT-116 [2])	pIC50 (HCT-116 [3])	pIC50 (MDA-MB-231 [4])	logP [5]
COc1ccccc1C(=O)NS(=O)(=O)c1cc(C(=O)Nc2cc(OC)c(OC)c(OC)c2)ccc1Cl	-18.3%	33.9%	13.1%	16.2%	–	–	–
COc1ccc(NC(=O)c2cccc(S(N)(=O)=O)c2)cc1	23.9%	38.4%	32.3%	42.7%	–	–	–
COc1ccc(OC)c(NC(=O)c2cccc(S(N)(=O)=O)c2)c1	20.5%	31.9%	37%	46.4%	–	–	–
CN1CCN(c2ccc(NC(=O)c3ccc(Cl)c(S(N)(=O)=O)c3)cc2)CC1	14.6%	38.3%	37.3%	40.5%	–	–	–
NS(=O)(=O)c1ccc(O)c(C(=O)Nc2ccc([N+](=O)[O-])cc2Cl)c1	44.7%	-8.3%	48.2%	64%	–	–	–
C/C=C/C(=O)NS(=O)(=O)c1cc(C(=O)Nc2cc(OC)c(OC)c(OC)c2)ccc1Cl	11.7%	24.6%	18.4%	29.3%	–	–	–
C=C(C)C(=O)NS(=O)(=O)c1cc(C(=O)Nc2cc(OC)c(OC)c(OC)c2)ccc1Cl	-11.3%	22.3%	4.84%	30%	–	–	–
COc1cc(NC(=O)c2cccc(S(N)(=O)=O)c2)cc(OC)c1	22.2%	40.4%	39.6%	47.1%	–	–	–
COc1cc(NC(=O)c2ccc(Cl)c(S(N)(=O)=O)c2)cc(OC)c1	26.3%	27.2%	31.8%	42.5%	–	–	–
NS(=O)(=O)c1cccc(C(=O)Nc2ccc([N+](=O)[O-])cc2Cl)c1	21.3%	44.1%	43.2%	15.1%	–	–	–
COc1cc(NC(=O)c2ccc(Cl)c(S(=O)(=O)NC(C)=O)c2)cc(OC)c1OC	-15.2%	19.5%	19.4%	27.2%	–	–	–
COc1ccc(OC)c(NC(=O)c2ccc(Cl)c(S(N)(=O)=O)c2)c1	24.2%	23.2%	26.7%	28.2%	–	–	–
NS(=O)(=O)c1cc(C(=O)Nc2ccccc2C(F)(F)F)ccc1Cl	21.2%	30.7%	44.9%	45.4%	–	–	–
NS(=O)(=O)c1cc(C(=O)Nc2ccc(F)c(Cl)c2)ccc1Cl	30.2%	49.1%	41.5%	47.5%	–	–	–
COc1cc(NC(=O)c2ccc(Cl)c(S(=O)(=O)NC(=O)c3c(OC)cccc3OC)c2)cc(OC)c1OC	4.06%	30.6%	18.1%	10.2%	–	–	–
NS(=O)(=O)c1cc(C(=O)Nc2cccc(C(F)(F)F)c2)ccc1Cl	22.3%	42.9%	29%	41.4%	–	–	–
COc1cccc(C(=O)NS(=O)(=O)c2cc(C(=O)Nc3cc(OC)c(OC)c(OC)c3)ccc2Cl)c1	-0.51%	22%	23.5%	21.3%	–	–	–
COc1cc(NC(=O)c2ccc(Cl)c(S(N)(=O)=O)c2)cc(OC)c1OC	42.1%	82.2%	93.3%	87.9%	–	–	–
NS(=O)(=O)c1cccc(C(=O)Nc2cccc(C(F)(F)F)c2)c1	9.27%	34.4%	27.2%	39.7%	–	–	–
NS(=O)(=O)c1cc(C(=O)Nc2ccc(Cl)c(F)c2)ccc1Cl	26.4%	48.1%	43.7%	44.1%	–	–	–
COc1ccc(CNC(=O)c2ccc(Cl)c(S(N)(=O)=O)c2)cc1	29%	16.2%	54%	43.1%	–	–	–
COc1cc(CNC(=O)c2ccc(Cl)c(S(N)(=O)=O)c2)cc(OC)c1OC	38.2%	27.4%	44.4%	34.3%	–	–	–
CC(C)(C)OC(=O)c1ccc(NC(=O)c2cccc(S(N)(=O)=O)c2)cc1	31.2%	55.4%	91.1%	79.3%	5.01	6.15	1.54
